Laboratory results published in patent publication US20180057505A1, “BICYCLIC HETEROARYL COMPOUNDS USEFUL AS INHIBITORS OF THE PAR-2 SIGNALING PATHWAY” (VERTEX PHARMACEUTICALS INCORPORATED, priority 2015, published 2018).

How the values were obtained:
Format in all cases: cell-based
[1] = tested on: Thrombin-stimulated Ca2+ response in HT-29 cells; assay: Ca FLIPR TETRA assay, ANTAGONIST mode, activator 1 U/mL Thrombin; details: HT-29 cells, activator 1 U/mL Thrombin
Method in brief: (§1)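 Antagonist mode, HT-29: cells O/N 37 °C, 1% FBS; calcium 5 dye 45 min 37 °C + 15 min RT; cpd (DMSO, HBSS-diluted) 30 min RT; activator at final conc. (8 μM SLIGKV / 1 U/mL thrombin / 3.1 U/mL trypsin / 0.6 μM UTP); FLIPR Tetra Ca2+ read.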

PAR2 (HT-29 cells) [2] = target: T1, PAR2 (HT-29 cells) (Homo sapiens, UniProt P55085); assay: Ca FLIPR TETRA assay, ANTAGONIST mode, activator 8 μM SLIGKV; details: HT-29 cells; activator 8 μM SLIGKV; Method A: maximal concentration of antagonist 0.1, 1 or 2 μM
T1 construct: host or cells: HT-29
T1 sequence (P55085 26-397): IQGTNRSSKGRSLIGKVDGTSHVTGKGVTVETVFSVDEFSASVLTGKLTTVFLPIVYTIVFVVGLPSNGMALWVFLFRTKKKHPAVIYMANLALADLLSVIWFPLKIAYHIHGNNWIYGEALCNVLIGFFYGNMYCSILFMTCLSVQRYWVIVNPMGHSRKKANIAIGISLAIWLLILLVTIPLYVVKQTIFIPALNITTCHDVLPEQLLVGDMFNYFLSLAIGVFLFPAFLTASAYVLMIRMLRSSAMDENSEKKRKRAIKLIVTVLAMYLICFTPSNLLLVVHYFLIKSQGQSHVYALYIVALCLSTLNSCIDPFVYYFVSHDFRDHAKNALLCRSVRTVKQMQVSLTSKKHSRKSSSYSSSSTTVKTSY
Method in brief: as §1

PAR2 (HT-29 cells) [3] = target: T1, PAR2 (HT-29 cells); assay: Ca FLIPR TETRA assay, ANTAGONIST mode, activator 3.1 U/mL trypsin; details: HT-29 cells; activator 3.1 U/mL trypsin; Method A: maximal concentration of antagonist 0.1, 1 or 2 μM
Method in brief: as §1

[4] = tested on: UTP-stimulated Ca2+ response in HT-29 cells; assay: Ca FLIPR TETRA assay, ANTAGONIST mode, activator 0.6 μM UTP; details: HT-29 cells, activator 0.6 μM UTP
Method in brief: as §1

IC50 ([1]; Homo sapiens) [nM]	IC50 (PAR2 (HT-29 cells) [2]) [nM]	IC50 (PAR2 (HT-29 cells) [3]) [nM]	IC50 ([4]; Homo sapiens) [nM]	IC50 [1] [nM]	IC50 [4] [nM]	Structure (SMILES)
> 2000	33.9	20	> 2000	–	–	CC(C)(C)c1cc(-c2ccc(Cl)c(F)c2)nc2cc(C(=O)N3CCN(C(=O)[C@@H]4CCS(=O)(=O)N4)CC3(C)C)oc12 [Example I-472]
> 2000	18	27.7	> 2000	–	–	CC(C)(C)c1cc(-c2ccc(Cl)c(F)c2)nc2cc(C(=O)N3CCN(C(=O)[C@H]4CCS(=O)(=O)N4)CC3(C)C)oc12 [Example I-473]
> 2000	39	53	> 2000	–	–	CC(C)(C)c1cc(-c2ccc(Cl)cc2)nc2cc(C(=O)N3CCN(C(=O)[C@@H]4CCS(=O)(=O)N4)CC3(C)C)oc12 [Example I-474]
> 2000	26	34	> 2000	–	–	CC(C)(C)c1cc(-c2ccc(Cl)cc2)nc2cc(C(=O)N3CCN(C(=O)[C@H]4CCS(=O)(=O)N4)CC3(C)C)oc12 [Example I-475]
> 500	0.7	1.6	> 500	–	–	Cc1nc(N2CCN(C(=O)c3cc4nc(-c5ccc(Cl)c(F)c5)cc(C(C)(C)C)c4o3)C(C)(C)C2)oc1C(=O)O [Example I-476]
> 500	0.7	1.8	> 500	–	–	CC(C)(C)c1cc(-c2ccc(Cl)cc2)nc2cc(C(=O)N3CCN(c4cncc(C(=O)O)c4)CC3(C)C)oc12 [Example I-477]
> 500	1.9	4.1	> 500	–	–	Cc1nc(N2CCN(C(=O)c3cc4nc(-c5ccc(Cl)cc5)cc(C(C)(C)C)c4o3)C(C)(C)C2)oc1C(=O)O [Example I-478]
1500	0.2	0.3	1030	–	–	CC(C)(C)c1cc(-c2ccc(Cl)cc2)nc2cc(C(=O)N3CCN(c4cccc(C(=O)O)n4)CC3(C)C)oc12 [Example I-479]
> 1250	0.3	0.4	> 1250	–	–	CC(C)(C)c1cc(-c2ccc(Cl)cc2)nc2cc(C(=O)N3CCN(c4nc(C(=O)O)co4)CC3(C)C)oc12 [Example I-481]
> 2000	0.2	0.2	1200	–	–	COc1ccc(N2CCN(C(=O)c3cc4nc(-c5ccc(Cl)c(F)c5)cc(C(C)(C)C)c4o3)C(C)(C)C2)nc1C(=O)O [Example I-482]
> 2000	3.6	2.8	> 2000	–	–	CC(C)(C)c1cc(-c2ccc(Cl)cc2)nc2cc(C(=O)N3CCN(c4ncccn4)C(=O)C3(C)C)oc12 [Example I-483]
> 1100	0.5	1.1	> 1100	–	–	CC(C)(CN1CCN(C(=O)c2cc3nc(-c4ccc(Cl)c(F)c4)cc(C(C)(C)C)c3o2)C(C)(C)C1=O)C(=O)O [Example I-484]
> 2000	16	18	> 2000	–	–	Cc1ccnc(N2CCN(C(=O)c3cc4nc(-c5ccc(Cl)c(F)c5)cc(C(C)(C)C)c4o3)C(C)(C)C2)c1C(=O)O [Example I-485]
–	42	70	–	> 2000	> 2000	CC1(C)CCC(c2cc(C(C)(C)C)c3oc(C(=O)N4CCNC(=O)CC4(C)C)cc3n2)CC1 [Example I-486]
> 2000	0.2	0.3	> 2000	–	–	Cc1ccc(N2CCN(C(=O)c3cc4nc(-c5ccc(Cl)c(F)c5)cc(C(C)(C)C)c4o3)C(C)(C)C2)nc1C(=O)O [Example I-487]
> 2000	6.5	14	> 2000	–	–	Cc1ccc(N2CCN(C(=O)c3cc4nc(C5CCC(C)(C)CC5)cc(C(C)(C)C)c4o3)C(C)(C)C2=O)nc1C(=O)O [Example I-488]
> 2000	115	270	> 2000	–	–	CC1(C)CCC(c2cc(C(C)(C)C)c3oc(C(=O)N4CCC(=O)NCC4(C)C)cc3n2)CC1 [Example I-489]
> 2000	3.1	3.9	> 2000	–	–	CC(C)(C)c1cc(-c2ccc(Cl)c(F)c2)nc2cc(C(=O)N3CCN(c4cc(C(=O)O)ncn4)CC3(C)C)oc12 [Example I-490]
> 2000	190	230	> 2000	–	–	CC(C)(C)c1cc(-c2ccc(Cl)c(F)c2)nc2cc(C(=O)N3CCN(c4ccncc4C(=O)O)CC3(C)C)oc12 [Example I-491]

IC50 ([1]; Homo sapiens) [nM]	IC50 (PAR2 (HT-29 cells) [2]) [nM]	IC50 (PAR2 (HT-29 cells) [3]) [nM]	IC50 ([4]; Homo sapiens) [nM]	IC50 [1] [nM]	IC50 [4] [nM]	Structure (SMILES)
> 2000	7.5	7.3	> 2000	–	–	Cc1cnc(N2CCN(C(=O)c3cc4nc(-c5ccc(Cl)c(F)c5)cc(C(C)(C)C)c4o3)C(C)(C)C2)c(C(=O)O)c1 [Example I-492]
> 2000	0.4	0.4	> 2000	–	–	CC(C)(C)c1cc(-c2ccc(Cl)cc2)nc2cc(C(=O)N3CCN(C(=O)CC4(C(=O)O)CCCC4)CC3(C)C)oc12 [Example I-493]
> 2000	> 2000	0.1	> 2000	–	–	Cc1cc(C(=O)O)nc(N2CCN(C(=O)c3cc4nc(-c5ccc(Cl)c(F)c5)cc(C(C)(C)C)c4o3)C(C)(C)C2)c1 [Example I-494]
> 2000	13	15	> 2000	–	–	Cc1ccc(N2CCN(C(=O)c3cc4nc(-c5ccc(Cl)cc5)cc(C(C)(C)C)c4o3)C(C)(C)C2=O)nc1C(=O)O [Example I-495]
> 2000	0.4	0.6	> 2000	–	–	Cc1nc(N2CCN(C(=O)c3cc4nc(C5CCC(C)(C)CC5)cc(C(C)(C)C)c4o3)C(C)(C)C2)ccc1C(=O)O [Example I-496]
> 2000	2.2	2.2	> 2000	–	–	CC(C)(C)c1cc(-c2ccc(Cl)c(F)c2)nc2cc(C(=O)N3CCN(C(=O)CC4(C(=O)O)CCOCC4)CC3(C)C)oc12 [Example I-497]
> 2000	0.3	0.3	> 2000	–	–	COc1nc(N2CCN(C(=O)c3cc4nc(-c5ccc(Cl)c(F)c5)cc(C(C)(C)C)c4o3)C(C)(C)C2)ccc1C(=O)O [Example I-498]
> 2000	3.6	5	> 2000	–	–	CC(C)(C)c1cc(-c2ccc(Cl)cc2)nc2cc(C(=O)N3CCN(C(=O)CC4(C(=O)O)CCOCC4)CC3(C)C)oc12 [Example I-499]
> 2000	0.4	0.5	> 2000	–	–	CC(C)(C)c1cc(-c2ccc(Cl)c(F)c2)nc2cc(C(=O)N3CCN(C(=O)[C@@H]4CCCC[C@@H]4C(=O)O)CC3(C)C)oc12 [Example I-500]
–	0.1	0.1	–	> 2000	> 2000	CC(C)(C)c1cc(-c2ccc(Cl)c(F)c2)nc2cc(C(=O)N3CCN(c4nc(C(=O)O)ccc4F)CC3(C)C)oc12 [Example I-501]
–	0.2	0.2	–	> 2000	> 2000	CC(C)(C)c1cc(-c2ccc(Cl)cc2)nc2cc(C(=O)N3CCN(c4nc(C(=O)O)ccc4F)CC3(C)C)oc12 [Example I-502]
–	0.2	0.3	–	> 2000	> 2000	CC1(C)CCC(c2cc(C(C)(C)C)c3oc(C(=O)N4CCN(c5nc(C(=O)O)ccc5F)CC4(C)C)cc3n2)CC1 [Example I-503]
> 2000	1.2	1.7	> 2000	–	–	Cc1cc(C(=O)N2CCN(C(=O)c3cc4nc(-c5ccc(Cl)c(F)c5)cc(C(C)(C)C)c4o3)C(C)(C)C2)[nH]n1 [Example I-504]
> 2000	14	9.6	> 2000	–	–	Cn1cnnc1N1CCN(C(=O)c2cc3nc(-c4ccc(Cl)cc4)cc(C(C)(C)C)c3o2)C(C)(C)C1 [Example I-505]
> 2000	23	21	> 2000	–	–	CC(C)(C)c1cc(-c2ccc(Cl)c(F)c2)nc2cc(C(=O)N3CCN(C(=O)[C@@H]4CCCC[C@H]4C(=O)O)CC3(C)C)oc12 [Example I-506]
> 2000	0.6	0.5	> 2000	–	–	CC(C)(C)c1cc(-c2ccc(Cl)c(F)c2)nc2cc(C(=O)N3CCN(C(=O)NS(=O)(=O)c4ccccc4)CC3(C)C)oc12 [Example I-507]
> 2000	8.1	10	> 2000	–	–	CC(C)(C)c1cc(-c2ccc(Cl)c(F)c2)nc2cc(C(=O)N3CCN(S(C)(=O)=O)CC3(C)C)oc12 [Example I-508]
> 2000	0.2	0.5	> 2000	–	–	CC1(C)CCC(c2cc(C(C)(C)C)c3oc(C(=O)N4CCN(C(=O)[C@H]5CC[C@@](C)(C(=O)OCOP(=O)(O)O)CC5)CC4(C)C)cc3n2)CC1 [Example I-509]
